In one series the test system is PC3M-GFP-PTB cells. The series can be described thus: Cytotoxicity measured by cellular ATP (CELLTITER GLO). The class given is cell-based, human. The text has this:
FIG. 1 is a graph showing the concentration-response curve against PNC prevalence in PC3M (a metastatic prostate cancer cell line)-GFP (green fluorescent protein)-PTB (polypyrimidine tract-binding protein) cells (squares, PC3M, has a PNC prevalence of 75-85% in the absence of treatment) and cytotoxicity as measured by cellular ATP (CELLTITER GLO™) (circles). Representative PTB-GFP images for cells at the indicated concentrations (arrowheads indicate PNCs) (scale bar=5 μm) are shown in the three panels above the graph. The relative signal (%) is along the y-axis and Metarrestin [log M] is along the x-axis.
Background: Cellular ATP, detected with luciferase, serves as a proxy for viable cell number.

Another series deals with PC3M xenograft mice. The experiment in a line: PC3M xenograft prostate cancer model. The class given is in vivo. As for the experimental part:
Metarrestin was tested in PC3M xenograft mice to determine whether metarrestin's anti-metastasis activity (observed in the NSG PANC1 mice and in vitro pan-cancer PNC suppression) translates into anti-metastasis activity in additional cancer models. Two weeks after subcutaneous implantation of PC3M cells, mice were started on 5 mg/kg or 25 mg/kg metarrestin or vehicle by daily IP injection for 4 additional weeks. Tumor progression was tracked by both in vivo imaging systems (“IVIS”) spectroscopy and tumor volume. Metastasis to the lungs was evaluated ex vivo through IVIS spectroscopy and by histopathology at the experimental endpoint. […] To evaluate the effect of metarrestin on a malignant xenograft considered closest to in vivo conditions, a patient-derived breast cancer xenotransplantation model (PDX) was used. Metastatic breast cancer cells harvested from the pleural fluid of a stage IV ductal breast cancer patient were inoculated into mice, and third generation mouse-passaged tumors were transplanted into the mammary fat pad of NOD.Cg-Prkdc^scid Il2rg^tm1Sug/JicTac mice. Treatment with metarrestin started after the tumors reached 150-200 mm^3. Metarrestin (25 mg/kg) or vehicle was administered daily by IP injection for 4 weeks with a 5-day on and 2-day off schedule. Tumor size and total body weight were measured twice a week, and tumor weight was measured at experimental end-point.
Prostate cancer model: Mice were implanted in the flank with 3×10^6 human PC-3M-luc-C6 […] tumor cells (Caliper Life Sciences) and split into 4 groups of 10 mice. Dosing with 5 or 25 mg/kg drug or vehicle alone (negative control) was initiated after 2 weeks and continued until the experimental endpoint, 6 weeks after implantation. Primary tumor size (measured with calipers), live tumor cell content (measured by biophotonic imaging), and total body weight were determined each week. At the endpoint, animals were euthanized, metastatic organs removed, and metastases quantitated by biophotonic imaging of the organs.

A further series relates to NSG PANC1 mice. The series can be described thus: Survival in NSG PANC1 pancreatic cancer metastasis model, drug-infused chow. It is filed as in vivo. The text has this:
FIG. 13 is a graph showing the survival rate of mice following metarrestin or vehicle treatment. This graph illustrates that metarrestin treatment extends survival in the NSG PANC1 pancreatic cancer metastasis model. […] The survival rate in the y-axis and the number of days after treatment is on the x-axis. Metarrestin treatment is the solid grey line at 100% survival and the descending black line is the vehicle (*** p<0.001).
FIG. 14 is a graph showing the survival rate of mice following metarrestin or vehicle treatment. This graph illustrates that metarrestin treatment extends survival in the NSG PANC1 pancreatic cancer metastasis model. Metarrestin treatment was provided through drug-infused chow (70 ppm designed to administer 10 mg/kg daily) after mice developed macrometastasis, including visible liver surface deposits. Metarrestin treatment extended the survival time of the mice compared to vehicle treated (NIH 31 Haslan diet). The survival rate in the y-axis and the number of days after treatment is on the x-axis. Metarrestin treatment is the solid grey line and the black line is the vehicle ([…]).
To evaluate whether metarrestin treatment can provide a survival advantage by preventing metastatic progression, the above experiment was repeated, but mice were followed until death or when animals reached study endpoint. NSG mice were injected with 60,000 3D PANC1 cells (details of assay below), and daily treatment with metarrestin-infused chow (10 mg/kg; 70 ppm, micronized particles added to NIH 31 Haslan rodent diet) began 6 weeks after tumor cell implantation, when metastasis was limited to micrometastasis by histopathological examination (FIG. 63). Animals in the control group receiving regular chow started to die 25 days after the start of treatment, whereas the metarrestin treatment group had no mortality more than 90 days after the start of treatment (FIG. 13). […]
Pancreatic cancer model: 60,000 luciferase-tagged PANC1 spheres were injected into the pancreas of Nod/IL2gamma (null) mice (obtained from NCI Mouse Repository, Frederick, Md.; on ACUC-approved animal protocol SB-211-2). […] Organs were then individually dissected, subjected to quantitative xenogene imaging, and fixed with 4% non-buffered formaldehyde. Impact of metastatic burden was calculated and graphed as liver and lung/primary tumor ratios based on a five-minute photon count for the liver normalized to liver weight (g), which was then compared to the average photon count per weight (g) of the primary pancreatic tumor of the same animal. […] Liver metastasis/mm^2 was calculated as the sum of the […] of the individual metastases. Tumor volume (mm^3) was calculated as (L×W2), where L=length (mm) and W=width (mm). Animal survival was measured from the first day of treatment until death. […]

On the set-up of series [1]: species or system NSG PANC1 mice. As to conditions: NSG (Nod/IL2gamma null), mouse, in vivo, po, 10 mg/kg, 1 h.
[2] abbreviates: infused chow 10 mg/kg (70 ppm) after macrometastasis visible.

Consider `N=c1c2c(-c3ccccc3)c(-c3ccccc3)n(Cc3ccccc3)c2ncn1[C@H]1CC[C@H](O)CC1` [metarrestin], for which the “Acute cytotoxicity (cellular ATP)” value in the series with PC3M-GFP-PTB cells is on record as “without acute cytotoxicity”. In addition, the “Growth of primary tumor xenografts” value in the series on PC3M xenograft mice (25 mg/kg daily IP for 4 weeks) is recorded as “modestly reduced growth”. The Lung metastasis result in the series on PC3M xenograft mice (25 mg/kg daily IP for 4 weeks, P<0.05 vs vehicle) was “decreased development of lung metastasis”. Moreover, in the series with PC3M xenograft mice (daily IP for 4 weeks), the “Body weight and behavior” value was “not significantly different”. In addition, in the series with NSG PANC1 mice (setting [2]), the “Extension of median overall survival over control group” value was “more than two-fold”; the “Organ replacement with tumors at necropsy (liver, lungs)” value was “preserved organs”; the “Primary tumor growth in the pancreas” value is “no significant difference”. The “Time after start of treatment without mortality” value with NSG PANC1 mice (infused chow 10 mg/kg (70 ppm) from 6 weeks after implantation (micrometastasis)) was “more than 90 days”. Further, in series [1], the “Concentration in primary tumors above the IC90 of 0.75 μM” value is “more than 10 fold”.

For the origin of these results see patent publication US20210186972A1, “FORMULATIONS AND METHODS FOR THE PREVENTION AND TREATMENT OF TUMOR METASTASIS AND TUMORIGENESIS” (THE UNITED STATES OF AMERICA, AS REPRESENTED BY THE …, priority 2018, published 2021).
